Data from ChEMBL document CHEMBL1201862, “PubChem BioAssay data set” (2004).
The source made the active and inactive calls.

Columns and labels:
SUMO-activating enzyme [1] = molecular target: T1, SUMO-activating enzyme (Homo sapiens, UniProt Q9UBT2); test: blockers of UBC9-mediated SUMO conjugation – biochemical, AlphaScreen, SUMOylation inhibitor project, confirmation (AID 2018); format: functional
SUMO E1/E2 = SUMO E1/E2 (Homo sapiens, UniProt P63279+Q9UBE0+Q9UBT2); test: SAR analysis of SUMOylation using HTRF in an in-Vitro dose response assay. [Related pubchem assays (depositor defined):AID2006, AID2011, AID2018, AID2069, AID2658]; format: functional
Chain of SUMO E1/E2 (Q9UBE0 whole entry): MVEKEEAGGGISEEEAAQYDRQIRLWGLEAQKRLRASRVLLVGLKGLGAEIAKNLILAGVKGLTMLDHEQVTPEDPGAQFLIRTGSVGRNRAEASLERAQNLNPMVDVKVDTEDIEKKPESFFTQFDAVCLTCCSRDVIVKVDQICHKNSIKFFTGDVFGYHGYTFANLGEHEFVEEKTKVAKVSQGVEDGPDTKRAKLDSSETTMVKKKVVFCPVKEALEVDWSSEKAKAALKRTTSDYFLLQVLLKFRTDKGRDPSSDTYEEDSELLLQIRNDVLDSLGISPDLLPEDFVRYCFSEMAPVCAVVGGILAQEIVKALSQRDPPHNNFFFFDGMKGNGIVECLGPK
Chain of SUMO E1/E2 (Q9UBT2 whole entry): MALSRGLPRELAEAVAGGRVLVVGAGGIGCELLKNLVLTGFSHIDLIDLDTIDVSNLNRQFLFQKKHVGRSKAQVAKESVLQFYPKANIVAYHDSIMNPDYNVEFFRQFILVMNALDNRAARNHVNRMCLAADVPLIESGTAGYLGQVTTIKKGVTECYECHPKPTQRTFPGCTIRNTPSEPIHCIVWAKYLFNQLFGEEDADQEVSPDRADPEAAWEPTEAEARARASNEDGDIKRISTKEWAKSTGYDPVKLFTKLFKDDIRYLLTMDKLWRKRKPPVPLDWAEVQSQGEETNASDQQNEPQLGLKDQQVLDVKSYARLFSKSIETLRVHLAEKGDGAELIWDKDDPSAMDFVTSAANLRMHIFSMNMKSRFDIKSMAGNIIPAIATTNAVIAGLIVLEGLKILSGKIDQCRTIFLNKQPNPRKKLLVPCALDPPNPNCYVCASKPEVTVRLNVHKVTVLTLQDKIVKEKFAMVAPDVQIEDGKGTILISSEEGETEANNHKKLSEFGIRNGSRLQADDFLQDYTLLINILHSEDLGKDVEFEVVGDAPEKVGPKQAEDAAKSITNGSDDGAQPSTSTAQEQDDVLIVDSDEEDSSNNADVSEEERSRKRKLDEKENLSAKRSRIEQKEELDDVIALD
Chain of SUMO E1/E2 (P63279 whole entry): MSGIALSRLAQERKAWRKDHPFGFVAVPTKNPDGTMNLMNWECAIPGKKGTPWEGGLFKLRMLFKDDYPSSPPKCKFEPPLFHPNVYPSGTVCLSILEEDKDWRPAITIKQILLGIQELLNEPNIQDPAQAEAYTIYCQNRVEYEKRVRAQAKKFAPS

ORF 73 = ORF 73 (Human herpesvirus 8, UniProt O40947); test: KSHV LANA DNA-binding disruption – biochemical, fluorescence polarization, cherry-picked samples, dose response (AID 504725); parameters: species or system Human gammaherpesvirus 8;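 also: fluorescence polarization of a labeled DNA duplex reporting LANA DNA binding; potency is for inhibitors that block LANA binding to the DNA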
Chain of ORF 73 (O40947 whole entry): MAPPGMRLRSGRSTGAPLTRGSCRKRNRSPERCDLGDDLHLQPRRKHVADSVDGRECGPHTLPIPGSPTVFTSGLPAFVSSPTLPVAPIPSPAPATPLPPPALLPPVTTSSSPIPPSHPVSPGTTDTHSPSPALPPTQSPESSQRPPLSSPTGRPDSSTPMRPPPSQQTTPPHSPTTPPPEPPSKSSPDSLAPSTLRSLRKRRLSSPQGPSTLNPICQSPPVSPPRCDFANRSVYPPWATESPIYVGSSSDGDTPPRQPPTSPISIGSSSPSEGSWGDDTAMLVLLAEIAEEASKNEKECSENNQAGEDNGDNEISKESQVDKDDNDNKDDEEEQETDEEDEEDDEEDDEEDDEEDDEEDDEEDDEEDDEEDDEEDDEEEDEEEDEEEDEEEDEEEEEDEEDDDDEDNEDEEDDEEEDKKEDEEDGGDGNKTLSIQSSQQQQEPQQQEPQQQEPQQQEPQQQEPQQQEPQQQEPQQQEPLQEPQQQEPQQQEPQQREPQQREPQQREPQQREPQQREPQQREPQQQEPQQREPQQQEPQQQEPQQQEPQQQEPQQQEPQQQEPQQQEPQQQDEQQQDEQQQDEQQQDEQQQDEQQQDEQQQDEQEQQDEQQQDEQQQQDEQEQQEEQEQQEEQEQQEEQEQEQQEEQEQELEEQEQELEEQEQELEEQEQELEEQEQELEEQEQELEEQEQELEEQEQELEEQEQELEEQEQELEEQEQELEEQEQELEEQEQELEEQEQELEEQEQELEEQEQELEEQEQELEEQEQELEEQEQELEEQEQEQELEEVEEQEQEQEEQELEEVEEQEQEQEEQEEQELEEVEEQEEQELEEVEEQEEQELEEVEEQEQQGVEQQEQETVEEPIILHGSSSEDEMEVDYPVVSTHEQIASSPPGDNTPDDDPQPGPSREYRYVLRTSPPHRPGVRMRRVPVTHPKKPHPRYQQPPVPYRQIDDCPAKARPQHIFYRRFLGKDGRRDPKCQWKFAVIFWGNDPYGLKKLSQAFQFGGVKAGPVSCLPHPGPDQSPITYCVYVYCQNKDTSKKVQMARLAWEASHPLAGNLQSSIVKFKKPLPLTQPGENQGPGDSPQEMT

[2] = molecular target: T2, Histone-lysine N-methyltransferase NSD2 (Homo sapiens, UniProt O96028); format: biochemical
T2 sequence (O96028 whole entry): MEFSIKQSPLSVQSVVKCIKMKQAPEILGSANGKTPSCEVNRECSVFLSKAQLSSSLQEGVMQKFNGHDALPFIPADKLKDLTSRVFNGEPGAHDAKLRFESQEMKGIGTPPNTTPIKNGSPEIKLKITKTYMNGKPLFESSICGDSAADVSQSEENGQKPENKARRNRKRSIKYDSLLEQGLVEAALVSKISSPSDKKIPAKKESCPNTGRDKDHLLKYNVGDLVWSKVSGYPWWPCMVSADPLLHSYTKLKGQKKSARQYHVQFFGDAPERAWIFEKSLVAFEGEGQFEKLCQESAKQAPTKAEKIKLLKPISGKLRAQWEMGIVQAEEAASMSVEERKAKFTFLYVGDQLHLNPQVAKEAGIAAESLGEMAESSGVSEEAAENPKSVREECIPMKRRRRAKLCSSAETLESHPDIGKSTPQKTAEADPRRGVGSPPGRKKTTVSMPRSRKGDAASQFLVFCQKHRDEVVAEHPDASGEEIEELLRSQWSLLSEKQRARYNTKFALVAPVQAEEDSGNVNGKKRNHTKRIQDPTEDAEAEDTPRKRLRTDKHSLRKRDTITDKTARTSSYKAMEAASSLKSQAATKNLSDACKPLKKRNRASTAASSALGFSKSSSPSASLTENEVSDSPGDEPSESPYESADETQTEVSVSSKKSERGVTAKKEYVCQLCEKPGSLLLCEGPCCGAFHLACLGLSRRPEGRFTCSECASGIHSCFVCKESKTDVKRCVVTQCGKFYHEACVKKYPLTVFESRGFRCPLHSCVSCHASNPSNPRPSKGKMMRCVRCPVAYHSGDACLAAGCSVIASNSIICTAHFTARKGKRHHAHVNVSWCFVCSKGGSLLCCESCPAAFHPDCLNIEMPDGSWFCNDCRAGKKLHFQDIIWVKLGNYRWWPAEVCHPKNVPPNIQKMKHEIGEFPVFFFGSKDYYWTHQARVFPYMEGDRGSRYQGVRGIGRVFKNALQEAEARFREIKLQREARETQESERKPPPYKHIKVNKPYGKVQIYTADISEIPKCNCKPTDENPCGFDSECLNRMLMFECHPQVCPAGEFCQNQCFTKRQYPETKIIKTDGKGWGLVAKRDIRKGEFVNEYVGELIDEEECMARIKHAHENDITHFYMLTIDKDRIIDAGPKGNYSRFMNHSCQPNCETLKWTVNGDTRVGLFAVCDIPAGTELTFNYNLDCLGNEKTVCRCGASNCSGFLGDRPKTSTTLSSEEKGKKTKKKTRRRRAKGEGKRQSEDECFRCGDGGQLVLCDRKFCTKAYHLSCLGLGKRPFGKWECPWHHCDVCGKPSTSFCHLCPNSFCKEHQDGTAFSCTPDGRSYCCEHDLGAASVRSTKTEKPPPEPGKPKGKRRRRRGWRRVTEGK

[3] = molecular target: T3, Voltage-gated N-type calcium channel alpha-1B subunit/Amyloid beta A4 precursor protein-binding family A member 1 (Homo sapiens, UniProt Q00975+Q02410); format: protein assay
[4] = molecular target: DNA (cytosine-5)-methyltransferase 1 (Homo sapiens, UniProt P26358); test: inhibition of DNA methylation by DNMT1 – biochemical, fluorescent molecular beacon, confirmation (AID 602386); format: functional
Genome polyprotein = Genome polyprotein (dengue virus type 2, UniProt P29990); test: flavivirus cap methylation enzyme inhibition – biochemical, confirmation dose response, primary screen (AID 588689); format: functional
[5] = molecular target: Induced myeloid leukemia cell differentiation protein Mcl-1 (Homo sapiens, UniProt Q07820); format: functional
Chain of Induced myeloid leukemia cell differentiation protein Mcl-1 (Q07820 whole entry): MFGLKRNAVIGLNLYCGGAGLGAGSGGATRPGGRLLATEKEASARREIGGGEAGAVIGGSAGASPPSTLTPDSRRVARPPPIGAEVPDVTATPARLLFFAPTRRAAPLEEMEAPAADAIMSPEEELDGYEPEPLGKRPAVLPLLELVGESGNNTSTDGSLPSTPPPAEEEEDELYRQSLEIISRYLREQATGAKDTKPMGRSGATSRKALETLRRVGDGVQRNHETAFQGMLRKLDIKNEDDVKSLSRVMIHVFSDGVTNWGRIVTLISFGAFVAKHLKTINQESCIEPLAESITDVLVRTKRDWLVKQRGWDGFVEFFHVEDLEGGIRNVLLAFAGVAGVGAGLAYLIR

SUMO-activating enzyme [6] = molecular target: T1, SUMO-activating enzyme; test: blockers of SAE1/SAE2–UBC9 SUMO transfer – biochemical, HTRF, uHTS, primary screen (AID 2006); format: protein-complex assay
[7] = molecular target: Transitional endoplasmic reticulum ATPase (Homo sapiens, UniProt P55072); test: p97 ATPase inhibitors, dose response, biochemical (AID 1534)
Aminopeptidase N = molecular target: T4, Aminopeptidase N (Plasmodium falciparum FcB1/Columbia, UniProt O96935); test: malaria alanyl aminopeptidase activity blockers – biochemical, fluorogenic H-Leu-NHMec substrate, 1536-well (AID 1445); parameters: species or system Plasmodium falciparum 3D7, 3D7
T4 sequence (O96935 whole entry): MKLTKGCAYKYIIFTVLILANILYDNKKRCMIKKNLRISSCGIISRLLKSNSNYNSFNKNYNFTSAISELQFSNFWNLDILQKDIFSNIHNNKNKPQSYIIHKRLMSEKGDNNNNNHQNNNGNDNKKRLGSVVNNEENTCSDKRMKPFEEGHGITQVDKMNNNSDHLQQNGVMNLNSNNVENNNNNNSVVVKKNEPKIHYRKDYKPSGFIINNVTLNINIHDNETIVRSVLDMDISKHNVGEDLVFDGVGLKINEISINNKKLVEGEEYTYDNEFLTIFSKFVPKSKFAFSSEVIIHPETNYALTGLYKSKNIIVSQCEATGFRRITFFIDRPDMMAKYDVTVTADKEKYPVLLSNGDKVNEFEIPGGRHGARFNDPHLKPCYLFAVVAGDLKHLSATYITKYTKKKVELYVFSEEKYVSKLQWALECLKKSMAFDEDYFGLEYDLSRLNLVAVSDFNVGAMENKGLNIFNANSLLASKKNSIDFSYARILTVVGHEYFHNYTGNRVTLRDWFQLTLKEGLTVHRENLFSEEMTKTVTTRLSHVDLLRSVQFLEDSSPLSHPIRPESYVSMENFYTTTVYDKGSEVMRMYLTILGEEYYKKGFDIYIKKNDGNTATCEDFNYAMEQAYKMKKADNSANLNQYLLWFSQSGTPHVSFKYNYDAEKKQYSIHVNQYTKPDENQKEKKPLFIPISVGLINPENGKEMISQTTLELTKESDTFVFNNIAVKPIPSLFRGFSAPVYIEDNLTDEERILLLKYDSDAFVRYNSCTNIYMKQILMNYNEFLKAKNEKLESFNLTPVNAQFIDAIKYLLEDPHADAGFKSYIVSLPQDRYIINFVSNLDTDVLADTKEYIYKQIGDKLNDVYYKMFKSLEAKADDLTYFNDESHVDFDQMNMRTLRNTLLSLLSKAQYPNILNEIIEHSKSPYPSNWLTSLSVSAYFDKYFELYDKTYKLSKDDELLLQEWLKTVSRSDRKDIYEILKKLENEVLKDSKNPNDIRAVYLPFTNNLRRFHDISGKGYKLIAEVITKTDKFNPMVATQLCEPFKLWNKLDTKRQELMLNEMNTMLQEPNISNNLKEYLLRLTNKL

[8] = molecular target: Transitional endoplasmic reticulum ATPase (Homo sapiens, UniProt P55072, C522A); test: C522A mutant p97 ATPase inhibitors, dose response, counter-screen for p97 inhibitor project, biochemical, luminescence (AID 1544)
[9] = molecular target: T3, Voltage-gated N-type calcium channel alpha-1B subunit/Amyloid beta A4 precursor protein-binding family A member 1; format: protein assay; remark: listed apart in the source
Caspase-6 = molecular target: T5, Caspase-6 (Homo sapiens, UniProt P55212); test: inhibition of CASP6 peptide cleavage – biochemical, VEID-R110 fluorescence, cherry-pick, dose response (AID 720632)
T5 sequence (P55212 whole entry): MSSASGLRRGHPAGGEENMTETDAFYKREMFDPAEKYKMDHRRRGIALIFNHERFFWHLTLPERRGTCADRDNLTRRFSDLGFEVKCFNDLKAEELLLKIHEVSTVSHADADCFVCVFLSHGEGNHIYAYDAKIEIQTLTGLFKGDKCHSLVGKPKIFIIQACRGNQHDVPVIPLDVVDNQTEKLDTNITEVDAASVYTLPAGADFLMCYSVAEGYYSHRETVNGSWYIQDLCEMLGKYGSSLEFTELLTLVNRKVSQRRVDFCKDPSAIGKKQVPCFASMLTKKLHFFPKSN

[10] = T. cruzi infection blockers in NIH3T3 cells – beta-gal luminescence, NIH3T3 host cells, confirmation (AID 2630); format: functional, cell-based; settings: Mus musculus
[11] = molecular target: T6, Mannose-6-phosphate isomerase (Homo sapiens, UniProt P34949); test: phosphomannose isomerase inhibition – biochemical, fluorescence intensity, confirmation (AID 1535)
T6 sequence (P34949 whole entry): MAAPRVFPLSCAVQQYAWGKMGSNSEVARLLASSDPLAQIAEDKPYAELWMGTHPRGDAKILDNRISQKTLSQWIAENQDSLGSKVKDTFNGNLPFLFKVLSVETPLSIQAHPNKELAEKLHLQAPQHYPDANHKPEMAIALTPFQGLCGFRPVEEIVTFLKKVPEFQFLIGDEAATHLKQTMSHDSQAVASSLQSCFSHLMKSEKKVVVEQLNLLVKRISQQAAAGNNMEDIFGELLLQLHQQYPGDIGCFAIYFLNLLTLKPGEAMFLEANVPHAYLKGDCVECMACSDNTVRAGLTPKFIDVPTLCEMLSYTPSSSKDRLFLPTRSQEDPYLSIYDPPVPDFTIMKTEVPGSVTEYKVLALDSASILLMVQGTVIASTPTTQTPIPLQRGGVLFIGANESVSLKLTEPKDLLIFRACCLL

CAAX prenyl protease 1 = CAAX prenyl protease 1 (Saccharomyces cerevisiae S288c, UniProt P47154); test: yeast CAAX protease Ste24 inhibition – biochemical, S. cerevisiae, plate reader, cherry-pick, dose response (AID 488815)
Chain of CAAX prenyl protease 1 (P47154 whole entry): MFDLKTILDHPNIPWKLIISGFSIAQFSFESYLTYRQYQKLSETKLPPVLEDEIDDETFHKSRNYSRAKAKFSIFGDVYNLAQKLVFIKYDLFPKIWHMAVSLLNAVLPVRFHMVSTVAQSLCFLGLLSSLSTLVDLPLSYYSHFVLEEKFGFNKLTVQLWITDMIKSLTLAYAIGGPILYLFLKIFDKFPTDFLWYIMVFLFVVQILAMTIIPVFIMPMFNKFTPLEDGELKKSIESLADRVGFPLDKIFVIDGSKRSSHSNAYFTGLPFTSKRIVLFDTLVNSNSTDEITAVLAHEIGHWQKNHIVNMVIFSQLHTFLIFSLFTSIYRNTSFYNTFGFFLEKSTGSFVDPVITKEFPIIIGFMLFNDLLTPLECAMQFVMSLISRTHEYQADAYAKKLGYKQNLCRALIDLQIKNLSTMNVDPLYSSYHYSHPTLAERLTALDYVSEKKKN

CAAX prenyl protease 2 = CAAX prenyl protease 2 (Homo sapiens, UniProt Q9Y256); test: inhibition of Ras-converting CAAX protease Rce1 – biochemical, yeast membranes, quenched-peptide fluorescence, cherry-pick, dose response (AID 588849)
Chain of CAAX prenyl protease 2 (Q9Y256 whole entry): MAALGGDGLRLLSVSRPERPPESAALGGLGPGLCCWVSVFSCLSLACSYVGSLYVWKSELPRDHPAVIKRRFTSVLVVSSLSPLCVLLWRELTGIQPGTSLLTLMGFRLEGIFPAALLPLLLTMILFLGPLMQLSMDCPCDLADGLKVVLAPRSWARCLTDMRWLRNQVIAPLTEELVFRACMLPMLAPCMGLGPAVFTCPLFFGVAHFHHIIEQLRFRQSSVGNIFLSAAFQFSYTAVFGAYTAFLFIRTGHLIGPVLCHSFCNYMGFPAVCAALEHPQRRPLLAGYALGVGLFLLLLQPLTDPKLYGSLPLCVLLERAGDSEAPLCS

Trypsin = Trypsin (Sus scrofa, UniProt P00761); test: trypsin protease activity blockade – biochemical, quenched peptide fluorescence, cherry-pick, selectivity assay for Rce1 protease inhibitor project, dose response (AID 488789)
Chain of Trypsin (P00761 whole entry): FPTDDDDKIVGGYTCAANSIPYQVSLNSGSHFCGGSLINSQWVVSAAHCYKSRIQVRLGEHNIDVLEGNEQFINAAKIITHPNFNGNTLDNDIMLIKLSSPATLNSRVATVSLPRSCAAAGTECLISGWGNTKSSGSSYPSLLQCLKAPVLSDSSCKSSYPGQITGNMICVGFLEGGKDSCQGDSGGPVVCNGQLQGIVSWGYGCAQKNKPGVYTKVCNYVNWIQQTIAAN

[12] = restored growth of temperature-sensitive Burl-1 yeast – whole organism, S. cerevisiae, Burl-1 ts mutant, luminescence, counter-screen for SUMOylation pathway inhibitor project, dose response (AID 463199); format: functional
Keap1/Nrf2 = Keap1/Nrf2 (Homo sapiens, UniProt Q14145); test: disruptors of Keap1 binding to Nrf2 peptide – biochemical, fluorescence polarization, cherry-picked samples, dose response (AID 588683)
Beta-lactamase [13] = molecular target: Beta-lactamase (Pseudomonas aeruginosa, UniProt Q79MP6);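 also: biochemical dose-response test of metallo-beta-lactamase enzyme inhibition, read out by epi-absorbance; purified recombinant IMP-1 metallo-beta-lactamase with nitrocefin as substrate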
Chain of Beta-lactamase (Pseudomonas aeruginosa, UniProt Q79MP6) (Q79MP6 whole entry): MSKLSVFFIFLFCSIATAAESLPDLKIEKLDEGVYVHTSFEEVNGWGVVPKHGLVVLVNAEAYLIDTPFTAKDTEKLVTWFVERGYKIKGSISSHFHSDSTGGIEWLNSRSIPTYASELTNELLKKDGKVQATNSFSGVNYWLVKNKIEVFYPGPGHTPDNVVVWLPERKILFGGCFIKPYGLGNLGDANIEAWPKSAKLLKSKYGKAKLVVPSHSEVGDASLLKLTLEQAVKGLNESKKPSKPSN

[14] = molecular target: UDP-galactopyranose mutase (Mycobacterium tuberculosis, UniProt P9WIQ1); test: Inhibitors of Mycobacterium tuberculosis UDP-galactopyranose mutase (UGM) enzyme Measured in Biochemical System Using Plate Reader - 2105-02_Inhibitor_Dose_CherryPick_Activity. [Related pubchem assays (depositor defined):AID504439]
Chain of UDP-galactopyranose mutase (P9WIQ1 whole entry): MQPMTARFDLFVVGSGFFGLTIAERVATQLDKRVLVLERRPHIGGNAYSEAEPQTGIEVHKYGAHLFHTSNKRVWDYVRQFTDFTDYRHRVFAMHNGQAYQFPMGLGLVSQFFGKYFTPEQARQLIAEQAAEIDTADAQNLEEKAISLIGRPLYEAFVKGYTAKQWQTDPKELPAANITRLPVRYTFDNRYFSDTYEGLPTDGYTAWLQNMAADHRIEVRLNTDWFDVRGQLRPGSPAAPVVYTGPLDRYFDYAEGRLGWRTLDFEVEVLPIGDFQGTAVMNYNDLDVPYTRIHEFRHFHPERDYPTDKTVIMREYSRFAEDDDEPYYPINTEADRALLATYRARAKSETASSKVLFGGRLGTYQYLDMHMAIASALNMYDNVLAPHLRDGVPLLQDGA

Beta-lactamase [15] = molecular target: Beta-lactamase (Salmonella choleraesuis (strain SC-B67), UniProt Q5J463)
Chain of Beta-lactamase (Salmonella choleraesuis (strain SC-B67), UniProt Q5J463) (Q5J463 whole entry): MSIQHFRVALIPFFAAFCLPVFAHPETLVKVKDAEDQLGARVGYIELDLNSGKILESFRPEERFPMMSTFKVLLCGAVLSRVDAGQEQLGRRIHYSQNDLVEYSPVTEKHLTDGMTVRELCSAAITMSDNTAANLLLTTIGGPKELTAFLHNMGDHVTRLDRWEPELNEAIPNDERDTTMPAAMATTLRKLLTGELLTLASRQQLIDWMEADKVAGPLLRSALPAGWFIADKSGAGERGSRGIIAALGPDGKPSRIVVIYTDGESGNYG

[16] = molecular target: Lysine-specific demethylase 4C (Homo sapiens, UniProt Q9H3R0); test: inhibition of JMJD2C H3K9me3 demethylation – biochemical, DELFIA europium, cherry-picked samples, dose response (AID 488835); format: functional
[17] = molecular target: Serine/threonine-protein phosphatase PP1-alpha catalytic subunit (Homo sapiens, UniProt P62136); test: inhibition of protein phosphatase 1 activity – biochemical, fluorescence, dose response (AID 2394)
Chain of Serine/threonine-protein phosphatase PP1-alpha catalytic subunit (P62136 whole entry): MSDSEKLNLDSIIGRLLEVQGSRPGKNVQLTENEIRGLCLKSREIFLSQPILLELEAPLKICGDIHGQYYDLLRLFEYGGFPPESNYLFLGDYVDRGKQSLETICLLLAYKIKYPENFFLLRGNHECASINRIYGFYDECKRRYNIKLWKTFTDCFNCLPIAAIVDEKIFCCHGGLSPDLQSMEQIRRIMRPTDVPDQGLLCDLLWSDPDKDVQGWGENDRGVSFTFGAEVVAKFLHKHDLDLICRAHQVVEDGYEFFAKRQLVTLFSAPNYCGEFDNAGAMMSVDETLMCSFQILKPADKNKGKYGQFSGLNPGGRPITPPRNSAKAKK

[18] = bead-based luminescence quenchers, dual-tagged ARNT – biochemical, AlphaScreen, cherry-pick, artefact control for ARNT-TACC3 interaction inhibitor project, dose response (AID 651705); format: functional;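 also: AlphaScreen bead proximity signal that flags compounds interfering with the detection technology; potency reflects signal decrease which marks the compound as an assay artifact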
[19] = molecular target: Serine/threonine-protein phosphatase (Homo sapiens, UniProt Q9BPW0); test: inhibition of protein phosphatase 5 activity – biochemical, fluorescence, dose response (AID 2395)
[20] = SFLLRN-induced P-Selectin Platelet Surface Expression Measured in Cell-Based System Using Flow Cytometry - 2016-03_Inhibitor_Dose_DryPowder_Activity_Set3. [Related pubchem assays (depositor defined):AID1678]; format: functional
[21] = Luminescence Cell-Based Dose Response Follow up to Identify Inhibitors of Platelet Dense Granule Release. [Related pubchem assays (depositor defined):AID1663, AID1678, AID1889, AID2519]; format: functional

T1 sequence (Q9UBE0 whole entry): as the sequence (Q9UBE0 whole entry) above
T1 sequence (Q9UBT2 whole entry): as the sequence (Q9UBT2 whole entry) above

O=C(O)c1ccc(NS(=O)(=O)c2ccc3c(c2)C2C=CCC2C(c2ccccc2F)N3)cc1 (stereo unspecified)
IC50 (SUMO-activating enzyme [1]): 4.63 µM (active) | IC50 (SUMO E1/E2): 35.3 µM (active) | AC50 (ORF 73): 109 µM (active) | AC50 [2]: 10.2 µM (active) | IC50 [3]: > 50 µM (inactive) | IC50 [4]: 10.1 µM (active) | IC50 (Genome polyprotein): 62.3 µM (active) | IC50 [5]: 2.58 µM (active) | IC50 (SUMO-activating enzyme [6]): 19.5 µM (active) | IC50 [7]: 19 µM (not active) | IC50 (Aminopeptidase N): 2.75 µM (active) | IC50 [8]: > 50 µM (not active) | IC50 [9]: > 56.8 µM (not active) | AC50 (Caspase-6): 13.7 µM (active)

Cn1cc(CN2CCCC(C(=O)c3ccc(C(C)(C)C)cc3)C2)cn1 (stereo unspecified)
EC50 [10]: 1.25 µM (active)

O=c1c2ccccc2[nH]n1-c1ccccc1
IC50 [11]: 44.9 µM (active)

COc1ccc(-n2c(N)c(C(=O)NCc3ccco3)c3nc4ccccc4nc32)c(OC)c1
AC50 (CAAX prenyl protease 1): 5.18 µM (active) | AC50 (CAAX prenyl protease 2): 2.3 µM (active) | AC50 (Trypsin): 2.87 µM (active)

CSc1ccc(Cl)c(C(=O)Nc2ccc(N3CCOCC3)cc2)c1
AC50 [12]: 57.3 µM (active)

Nc1cccc(N2C(=O)c3cccc4c(N)ccc(c34)C2=O)c1
AC50 (ORF 73): 6.98 µM (active) | AC50 (Keap1/Nrf2): 4.29 µM (active) | IC50 (Beta-lactamase [13]): 31 µM (inactive) | AC50 [14]: 3.13 µM (active) | IC50 (Beta-lactamase [15]): 16.8 µM (inactive)

O=[N+]([O-])c1ccc(O)c(-c2nn[nH]n2)c1
AC50 [16]: 4.74 µM (active) | IC50 [17]: > 67 µM (not active) | AC50 [18]: 121 µM (active) | IC50 [19]: 44.5 µM (not active)

CC(=O)Nc1cccc(NC(=O)c2ccccc2Cl)c1
AC50 [20]: 53.9 µM (active) | EC50 [21]: 147 µM (active)
